# Tests used:
# soybean = assay: Test B pre/postemergence soybean; assay type: in vivo, Glycine max
# Procedure, shortened: (§1)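 Response is a visual 0-to-10 score relative to untreated plants, where 0 means no effect and 10 means complete control, taken twelve to sixteen days after application. Treatments went onto soil at planting and onto foliage of 1- to 4-leaf plants, using a surfactant-containing non-phytotoxic solvent.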
# rape = assay: Test B pre/postemergence rape; assay type: in vivo, Brassica napus
# Procedure, shortened: as §1
# giant foxtail = assay: Test B pre/postemergence giant foxtail; assay type: in vivo, Setaria faberii
# Procedure, shortened: as §1
# wheat = assay: Test B pre/postemergence wheat; assay type: in vivo, Triticum aestivum
# Procedure, shortened: as §1
# surinam grass = assay: Test B pre/postemergence surinam grass; assay type: in vivo, Brachiaria decumbens
# Procedure, shortened: as §1
# bedstraw = assay: Test B pre/postemergence bedstraw; assay type: in vivo, Galium aparine
# Procedure, shortened: as §1
# corn = assay: Test B pre/postemergence corn; assay type: in vivo, Zea mays
# Procedure, shortened: as §1
# crabgrass = assay: Test B pre/postemergence crabgrass; assay type: in vivo, Digitaria sanguinalis
# Procedure, shortened: as §1
# purple nutsedge = assay: Test B pre/postemergence purple nutsedge; assay type: in vivo, Cyperus rotundus
# Procedure, shortened: as §1
# pigweed = assay: Test B pre/postemergence pigweed; assay type: in vivo, Amaranthus retroflexus
# Procedure, shortened: as §1
# morningglory = assay: Test B pre/postemergence morningglory; assay type: in vivo, Ipomoea hederacea
# Procedure, shortened: as §1
# blackgrass = assay: Test B pre/postemergence blackgrass; assay type: in vivo, Alopecurus myosuroides
# Procedure, shortened: as §1
# velvetleaf = assay: Test B pre/postemergence velvetleaf; assay type: in vivo, Abutilon theophrasti
# Procedure, shortened: as §1
# sugar beet = assay: Test B pre/postemergence sugar beet; assay type: in vivo, Beta vulgaris
# Procedure, shortened: as §1
# wild oat = assay: Test B pre/postemergence wild oat; assay type: in vivo, Avena fatua
# Procedure, shortened: as §1
# cocklebur = assay: Test B pre/postemergence cocklebur; assay type: in vivo, Xanthium strumarium
# Procedure, shortened: as §1
# [1] = Postemergence, Rate 62 g/ha, scale 0 to 10, 0 is no effect, 10 is complete control
# [2] = Postemergence, Rate 500 g/ha, scale 0 (no effect) to 10 (complete control)
# [3] = Rate 62 g/ha, Preemergence, scale 0 to 10
# [4] = Rate 125 g/ha, Preemergence, scale 0 to 10 (0 no effect, 10 complete control)
# [5] = Rate 250 g/ha, Postemergence, scale 0 to 10, 0 is no effect, 10 is complete control
# [6] = Rate 500 g/ha, Preemergence, scale 0 to 10 (0 no effect, 10 complete control)
# [7] = Postemergence, Rate 125 g/ha, scale of 0 to 10 where 0 is no effect and 10 is complete control
# [8] = Preemergence, Rate 250 g/ha, scale 0 (no effect) to 10 (complete control)
smiles,measurement,setting,value
COC1CCC(Cn2c(=O)on(C(=O)N(c3ccc(F)cc3)C(C)C)c2=O)=NO1 (centres unmarked) [Compound 766],"Plant response rating, Soybean",soybean; [1],2
same,Soybean plant response rating,soybean; [2],4
same,Soybean plant response rating,soybean; [3],0
same,Soybean plant response rating,soybean; [4],0
same,Soybean plant response rating,soybean; [5],4
same,Soybean plant response rating,soybean; [6],0
same,"Plant response rating, Rape",rape; [1],0
same,Rape plant response rating,rape; [7],0
same,Rape plant response rating,rape; [2],0
same,Rape plant response rating,rape; [3],2
same,Rape plant response rating,rape; [4],5
same,Rape plant response rating,rape; [5],0
same,Rape plant response rating,rape; [6],9
same,"Plant response rating, Giant foxtail",giant foxtail; [1],0
same,Giant foxtail plant response rating,giant foxtail; [7],8
same,Giant foxtail plant response rating,giant foxtail; [2],9
same,Giant foxtail plant response rating,giant foxtail; [8],9
same,Giant foxtail plant response rating,giant foxtail; [3],9
same,Giant foxtail plant response rating,giant foxtail; [4],9
same,Giant foxtail plant response rating,giant foxtail; [5],9
same,Giant foxtail plant response rating,giant foxtail; [6],10
same,"Plant response rating, Wheat",wheat; [1],0
same,Wheat plant response rating,wheat; [2],3
same,Wheat plant response rating,wheat; [3],0
same,Wheat plant response rating,wheat; [4],4
same,Wheat plant response rating,wheat; [5],3
same,Wheat plant response rating,wheat; [6],10
same,"Plant response rating, B. signalgrass",surinam grass; [1],0
same,B. signalgrass plant response rating,surinam grass; [7],2
same,B. signalgrass plant response rating,surinam grass; [8],10
same,B. signalgrass plant response rating,"surinam grass; Rate 62 g/ha, Preemergence, scale 0 (no effect) to 10 (complete control)",6
same,B. signalgrass plant response rating,surinam grass; [4],8
same,B. signalgrass plant response rating,surinam grass; [5],8
same,B. signalgrass plant response rating,surinam grass; [6],10
same,"Plant response rating, Bedstraw",bedstraw; [1],0
same,Bedstraw plant response rating,bedstraw; [7],0
same,Bedstraw plant response rating,bedstraw; [2],3
same,Bedstraw plant response rating,bedstraw; [8],10
same,Bedstraw plant response rating,bedstraw; [3],4
same,Bedstraw plant response rating,bedstraw; [4],9
same,Bedstraw plant response rating,bedstraw; [5],0
same,Bedstraw plant response rating,bedstraw; [6],9
same,"Plant response rating, Corn",corn; [1],0
same,Corn plant response rating,corn; [7],0
same,Corn plant response rating,corn; [2],4
same,Corn plant response rating,corn; [8],0
same,Corn plant response rating,corn; [3],0
same,Corn plant response rating,corn; [4],0
same,Corn plant response rating,corn; [5],4
same,Corn plant response rating,corn; [6],3
same,"Plant response rating, Crabgrass",crabgrass; [1],2
same,Crabgrass plant response rating,crabgrass; [7],6
same,Crabgrass plant response rating,crabgrass; [2],9
same,Crabgrass plant response rating,crabgrass; [8],10
same,Crabgrass plant response rating,crabgrass; [3],9
same,Crabgrass plant response rating,crabgrass; [4],9
same,Crabgrass plant response rating,crabgrass; [5],6
same,Crabgrass plant response rating,crabgrass; [6],10
same,"Plant response rating, Nutsedge",purple nutsedge; [1],0
same,Nutsedge plant response rating,purple nutsedge; [7],3
same,Nutsedge plant response rating,purple nutsedge; [2],5
same,Nutsedge plant response rating,purple nutsedge; [3],0
same,Nutsedge plant response rating,purple nutsedge; [4],0
same,Nutsedge plant response rating,purple nutsedge; [6],4
same,"Plant response rating, Redroot pigweed",pigweed; [1],5
same,Redroot pigweed plant response rating,pigweed; [7],6
same,Redroot pigweed plant response rating,pigweed; [2],8
same,Redroot pigweed plant response rating,pigweed; [3],9
same,Redroot pigweed plant response rating,pigweed; [4],10
same,Redroot pigweed plant response rating,pigweed; [5],6
same,Redroot pigweed plant response rating,pigweed; [6],10
same,"Plant response rating, Morningglory",morningglory; [1],2
same,Morningglory plant response rating,morningglory; [7],2
same,Morningglory plant response rating,morningglory; [2],2
same,Morningglory plant response rating,morningglory; [3],2
same,Morningglory plant response rating,morningglory; [4],3
same,Morningglory plant response rating,morningglory; [5],2
same,Morningglory plant response rating,morningglory; [6],3
same,"Plant response rating, Blackgrass",blackgrass; [1],0
same,Blackgrass plant response rating,blackgrass; [7],5
same,Blackgrass plant response rating,blackgrass; [8],8
same,Blackgrass plant response rating,blackgrass; [3],0
same,Blackgrass plant response rating,blackgrass; [4],7
same,Blackgrass plant response rating,blackgrass; [5],6
same,Blackgrass plant response rating,blackgrass; [6],9
same,"Plant response rating, Velvetleaf",velvetleaf; [1],0
same,Velvetleaf plant response rating,velvetleaf; [2],5
same,Velvetleaf plant response rating,velvetleaf; [3],5
same,Velvetleaf plant response rating,velvetleaf; [4],5
same,Velvetleaf plant response rating,velvetleaf; [5],3
same,Velvetleaf plant response rating,velvetleaf; [6],10
same,"Plant response rating, Sugarbeets",sugar beet; [1],0
same,Sugarbeets plant response rating,sugar beet; [2],2
same,Sugarbeets plant response rating,sugar beet; [3],2
same,Sugarbeets plant response rating,sugar beet; [4],6
same,Sugarbeets plant response rating,sugar beet; [5],2
same,Sugarbeets plant response rating,sugar beet; [6],9
same,"Plant response rating, Wild oats",wild oat; [1],0
same,Wild oats plant response rating,wild oat; [2],2
same,Wild oats plant response rating,wild oat; [3],3
same,Wild oats plant response rating,wild oat; [4],7
same,Wild oats plant response rating,wild oat; [5],2
same,Wild oats plant response rating,wild oat; [6],10
same,"Plant response rating, Cocklebur",cocklebur; [1],0
same,Cocklebur plant response rating,cocklebur; [7],0
same,Cocklebur plant response rating,cocklebur; [2],6
same,Cocklebur plant response rating,cocklebur; [3],0
same,Cocklebur plant response rating,cocklebur; [4],0
same,Cocklebur plant response rating,cocklebur; [5],2
same,Cocklebur plant response rating,cocklebur; [6],0

# From patent US6737383B1, “Herbicidal oxadiazolidines” (priority 1999, dated 2004)
